# From article PMC10154249, “Unique progerin C-terminal peptide ameliorates Hutchinson–Gilford progeria syndrome phenotype by rescuing BUBR1” (Nature Aging, 2023)
# Several values for one entry are separate records, joined by “and”; a condition that tells them apart may be missing. Identical values can stand only once.
# What was measured:
# Lmna^G609G/G609G mice = assay: Open field test; type: in vivo, mouse; conditions: for Distance: LmnaG609G/G609G-UPCP, one line per mouse
# Method: For UPCP injection, 14-day-old Lmna^G609G/G609G mice were injected intraperitoneally with either PBS or UPCP (20 mg kg^–1, every other day) and wild-type mice were injected with PBS. All phenotypic analyses were performed after 12 weeks of treatment with UPCP. Bodyweight and lifespan were monitored after UPCP treatment. The survival rate was analyzed by the Kaplan–Meier method. We only included mice that were of sufficient bodyweight at the start of the experiment, typically at least 80% of the average littermate weight of the same sex and genotype. All animals meeting criteria for inclusion were then divided randomly into three groups according to genotype (Lmna^+/+, Lmna^G609G/G609G-Mock and Lmna^G609G/G609G-UPCP).
# The mice were acclimated to the testing room for 2 h before the test. Before each individual trial, the testing apparatus was cleaned with 75% ethanol. Mice were placed individually in a random corner of the box (40 × 40 × 35 cm) facing the wall. Their movements, indicating locomotor activity, were recorded with a video camera for 20 min and were analyzed with Ethovision XT 10 (Noldus).
# [1] = system: BUBR1, HMGA1, KDM1A, ZNF143 and FOXM1 mRNA; assay: RT-PCR of BUBR1 and its transcription factors in HGADFN003 cells; type: cell-based, human; conditions: for BUBR1 relative (to β-actin) mRNA level (2-ΔΔCt) / FOXM1 relative (to β-actin) mRNA level (2-ΔΔCt) / HMGA1 relative (to β-actin) mRNA level (2-ΔΔCt) / KDM1A relative (to β-actin) mRNA level (2-ΔΔCt) / ZNF143 relative (to β-actin) mRNA level (2-ΔΔCt): Fig. 4a, HGADFN003, vs Mock = 1; for BUBR1 relative (to β-actin) mRNA level (2-ΔΔCt): P=0.0003; for FOXM1 relative (to β-actin) mRNA level (2-ΔΔCt): P=0.2399; for HMGA1 relative (to β-actin) mRNA level (2-ΔΔCt): P=0.9214; for KDM1A relative (to β-actin) mRNA level (2-ΔΔCt): P=0.683; for ZNF143 relative (to β-actin) mRNA level (2-ΔΔCt): P=0.9897
# Method: RNA preparation was performed as described. Total RNA was extracted using Trizol reagent (TaKaRa) following the manufacturer’s instructions. cDNA was generated with M-MLV reverse transcriptase (Promega, catalog no. M170B). Reverse transcription with PCR (RT-PCR) was performed with SYBR Green Real-Time PCR Master Mix (TaKaRa). RT-PCR was carried out on a QuantStudio 3 Real-Time-PCR Instrument (ABI). Data were analyzed and further processed in QuantStuido Design and Analysis Software and GraphPad Prism v.7. Fold change in gene expression over control samples was calculated using the 2^–ΔΔCt method, where β-actin Ct values were used as an internal control. The primer sequences for PCR, synthesized by Comate Bioscience, were as follows:
# β-actin_fwd (5′-[…]-3′) and β-actin_rev (5′-[…]-3′); AURKB_fwd (5′-[…]-3′) and AURKB_rev (5′-[…]-3′); BUB1_ fwd (5′-[…]-3′) and BUB1_rev (5′-[…]-3′); BUB1B_fwd (5′-[…]-3′) and BUB1B_ rev (5′-[…]-3′); CCNA2_fwd (5′-[…]-3′) and CCNA2_ rev (5′-[…]-3′); Mad2l1_fwd (5′-[…]-3′) and Mad2l1_ rev (5′-[…]-3′); TTK1_fwd (5′-[…]-3′) and TTK1_ rev (5′-[…]-3′); PLK1_fwd (5′-[…]-3′) and PLK1_ rev (5′-[…]-3′); PTBP1_fwd (5′-[…]-3′) and PTBP1_ rev (5′-[…]-3′); HMGA1_fwd (5′-[…]-3′) and HMGA1_ rev (5′-[…]-3′); KDM1A1_fwd (5′-[…]-3′) and KDM1A1_ rev (5′-[…]-3′); ZNF143_fwd (5′-[…]-3′) and ZNF143_ rev (5′-[…]-3′); FOXM1_fwd (5′-[…]-3′) and FOXM1_ rev (5′-[…]-3′).
# HGADFN167 cells = assay: SA-β-gal staining of HGADFN167 cells; type: cell-based, human
# Method: (§1) SA-β-gal staining was performed as previously described. Cells were fixed in 0.5% glutaraldehyde for 15 min at room temperature, washed three times with PBS (pH 6.0) containing 1 mM MgCl2 and exposed overnight 37 °C to containing 1 mg ml^–1 5-bromo-4-chloro-3-indolyl-β-D-galactopyranoside (MCE, catalog no. HY-15934), 0.12 mM potassium ferrocyanide (Sigma, catalog no. P3289), 0.12 mM potassium ferricyanide (Sigma, catalog no. P8131) and 1 mM MgCl2 PBS buffer (pH 6.0). Cells were washed three times with H2O and observed under a microscope (OLYMPUS CKX53). SA-β-gal positive cells were quantified by investigators who were blinded to the identity of the analyzed cell.
# [2] = system: progerin–PTBP1 interaction; assay: CoIP of progerin and PTBP1 in HEK-293T cells; type: cell-based; conditions: CoIP in HEK-293T; HGPS cells
# Method: Detailed descriptions of CoIP were described previously[55],[56]. Cells were harvested and washed three times in cold PBS, then lysed in CoIP buffer (25 mM Tris-HCl (pH 7.5), 150 mM KCl, 5 mM EDTA, and 0.5% NP-40) plus protease inhibitor cocktail tablet (Roche). Incubate on ice and shock lysates on the vortex shaker 15 times for 30 s each. Microcentrifuge in 12,000g for 15 min at 4 °C, collect the supernatant, and incubate with 3 μg primary antibodies with gentle shaking overnight at 4 °C, followed by adding 20–40 μl Pure Proteome Protein A/G Mix Magnetic Beads (Millipore, catalog no. […]02) for 3 h. Wash the beads three times with 1 ml CoIP buffer for 8 min each, resuspend in 50 μl 1× loading buffer, and incubate at 100 °C for 8 min. Throw beads away and analyze by immunoblotting.
# HGADFN003 cells = assay: SA-β-gal staining of HGADFN003 cells; type: cell-based, human; conditions: for Relative percentage of SA-β-gal positive cells: Fig. 5a, Mock 32, 39, 31, P=0.0059; for SA-β-gal positive cells: HGADFN003, Extended Data Fig. 10c
# Method: as §1
substance,measurement,setting,value
"H-YGRKKRRQRRRYNLRSRTVLCGTCGQPADKASASGSGAQSPQNCSIM-OH (cysteines drawn unpaired) [UPCP, unique progerin C-terminal peptide]",mobility,"Lmna^G609G/G609G mice; 20 mg kg^–1 i.p. every other day, open field, 20 min",enhanced the mobility
same,Distance,"Lmna^G609G/G609G mice; female mice, Fig. 6g",3465.62 cm and 4842.39 cm and 4480.91 cm and 4399.08 cm and 3236.68 cm and 4440.93 cm
same,Distance,"Lmna^G609G/G609G mice; male mice, Fig. 6h",5127.23 cm and 4324.53 cm and 5298.93 cm and 5261.99 cm and 4436.52 cm and 3525.05 cm
same,BUBR1 relative (to β-actin) mRNA level (2-ΔΔCt),[1]; replicate 1,5.569
same,BUBR1 relative (to β-actin) mRNA level (2-ΔΔCt),[1]; replicate 2,6.327
same,BUBR1 relative (to β-actin) mRNA level (2-ΔΔCt),[1]; replicate 3,4.947
same,FOXM1 relative (to β-actin) mRNA level (2-ΔΔCt),[1]; replicate 1,1.5201
same,FOXM1 relative (to β-actin) mRNA level (2-ΔΔCt),[1]; replicate 2,2.139
same,FOXM1 relative (to β-actin) mRNA level (2-ΔΔCt),[1]; replicate 3,0.8641
same,HMGA1 relative (to β-actin) mRNA level (2-ΔΔCt),[1]; replicate 1,0.9058
same,HMGA1 relative (to β-actin) mRNA level (2-ΔΔCt),[1]; replicate 2,1.8337
same,HMGA1 relative (to β-actin) mRNA level (2-ΔΔCt),[1]; replicate 3,0.3934
same,KDM1A relative (to β-actin) mRNA level (2-ΔΔCt),[1]; replicate 1,0.9262
same,KDM1A relative (to β-actin) mRNA level (2-ΔΔCt),[1]; replicate 2,0.9644
same,KDM1A relative (to β-actin) mRNA level (2-ΔΔCt),[1]; replicate 3,1.24
same,ZNF143 relative (to β-actin) mRNA level (2-ΔΔCt),[1]; replicate 1,0.3607
same,ZNF143 relative (to β-actin) mRNA level (2-ΔΔCt),[1]; replicate 2,1.774
same,ZNF143 relative (to β-actin) mRNA level (2-ΔΔCt),[1]; replicate 3,0.8819
same,BUBR1 mRNA expression,"[1]; RT-PCR, HGADFN003 cells",could upregulate expression of BUBR1
same,expression of transcription factors regulating BUBR1,"[1]; RT-PCR, HGADFN003 cells",had little effect on their expression
same,SA-β-gal positive cells,"HGADFN167 cells; HGADFN167, replicate 1",24%
same,SA-β-gal positive cells,"HGADFN167 cells; HGADFN167, replicate 2",26%
same,SA-β-gal positive cells,"HGADFN167 cells; HGADFN167, replicate 3",20%
same,interaction of PTBP1 and progerin,[2],weakened the interaction of PTBP1 and progerin
same,Relative percentage of SA-β-gal positive cells,"HGADFN003 cells; HGADFN003, replicate 1",15%
same,Relative percentage of SA-β-gal positive cells,"HGADFN003 cells; HGADFN003, replicate 2",10%
same,Relative percentage of SA-β-gal positive cells,"HGADFN003 cells; HGADFN003, replicate 3",19%
same,"SA-β-gal activity (FTI-277/UPCP comparison, words)",HGADFN003 cells; HGADFN003,decreased the activity of SA-β-gal
same,SA-β-gal positive cells,HGADFN003 cells; replicate 1,12%
same,SA-β-gal positive cells,HGADFN003 cells; replicate 2,18%
same,SA-β-gal positive cells,HGADFN003 cells; replicate 3,25%
same,SA-β-gal activity,HGADFN003 cells; HGPS cells,reduced activity of SA-β-gal
same,efficacy on HGPS cellular senescence relative to FTI-277,HGADFN003 cells; HGPS cells,comparable with farnesyltransferase inhibitors (FTI-277)
